The numbers were not newly measured in patent publication US8278066B2, “Truncated somatostatin receptors” (Board of Regents, The University of Texas System, priority 2001, dated 2012), which cites them from elsewhere.

The target of the data set is SSTR2 (Homo sapiens, UniProt P30874). The settings on record: reported by Reisine et al. 1993; Raynor et al. 1993; cited from earlier work.
Sequence of SSTR2 (P30874 whole entry, species assumed): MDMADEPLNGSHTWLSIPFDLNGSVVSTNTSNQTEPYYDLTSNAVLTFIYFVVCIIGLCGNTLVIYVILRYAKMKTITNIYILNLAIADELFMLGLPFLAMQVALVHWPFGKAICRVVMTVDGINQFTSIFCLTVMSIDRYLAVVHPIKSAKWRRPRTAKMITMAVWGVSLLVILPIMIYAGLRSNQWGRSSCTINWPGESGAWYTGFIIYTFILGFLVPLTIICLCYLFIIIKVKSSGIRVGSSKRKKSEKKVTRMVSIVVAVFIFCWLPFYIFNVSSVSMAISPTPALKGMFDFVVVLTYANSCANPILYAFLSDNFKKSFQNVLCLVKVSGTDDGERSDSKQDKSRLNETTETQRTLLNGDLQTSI

For `C[C@@H](O)[C@@H]1NC(=O)[C@H](CCCCN)NC(=O)[C@@H](Cc2c[nH]c3ccccc23)NC(=O)[C@H](Cc2ccccc2)NC(=O)[C@@H](NC(=O)[C@H](N)Cc2ccccc2)CSSC[C@@H](C(=O)N[C@H](CO)[C@@H](C)O)NC1=O` [octreotide], the Receptor saturation was 100 nM.
